From patent publication US8791050B2, “Herbicidal compositions” (priority 1998, dated 2014)

Tests used:
Assay type in all cases: in vivo
[1] = test system: rice; assay: Selectivity: damage to rice, field trial
Method: The damage and development of all above-ground parts of the plants were recorded. […] The scores of in each case 4 plots were averaged.
Crop plants were grown outdoors on plots under natural outdoor conditions, and seeds or rhizome pieces of typical harmful plants were laid out or the natural weed growth was utilized.

[2] = test system: Amaranthus retroflexus (AMARE); assay: Herbicidal effect in rice, field trial, Amaranthus retroflexus; conditions: post-emergence 2-4-leaf stage, scoring 28 days after application
Method: (§1) The herbicidal efficacy of the active compounds or active compound mixtures was scored visually using the treated plots in comparison to untreated control plots. The damage and development of all above-ground parts of the plants were recorded. Scoring was carried out using a percentage scale (100% effect=all plants killed; 50% effect=50% of the plants and the green parts of the plants killed; 0% effect=no noticeable effect=like control plot). The scores of in each case 4 plots were averaged.
(§2) If the observed activity values already exceed the formal sum of the values for the trials with the individual applications, they also exceed the expected value according to Colby which is calculated using the following formula and which is likewise considered to be an indication of synergism (cf. S. R. Colby; in Weeds 15 (1967) pp. 20 to 22): E=A+B−(A·B/100)
(§3) Crop plants were grown outdoors on plots under natural outdoor conditions, and seeds or rhizome pieces of typical harmful plants were laid out or the natural weed growth was utilized. Treatment with the compositions according to the invention was carried out after the harmful plants had emerged and the crop plants were, generally, at the 2- to 4-leaf stage; in some cases (as stated), application of individual active compounds or active compound combinations was carried out pre-emergence (cf. Example 1) or as a sequential treatment partly pre-emergence and/or post-emergence.
(§4) After the application, for example 2, 4, 6 and 8 weeks after the application, the effect of the preparations was scored visually by comparison with untreated controls (cf. scoring in Example 1). In the field trial as well, the compositions according to the invention have synergistic herbicidal activity against a broad spectrum of economically important weed grasses and broad-leaved weeds. […] Moreover, the effects in essential phases of the scoring period were above the expected values according to Colby (cf. scoring in Example 1), also indicating synergism. […]

[3] = test system: Echinochloa colona (ECHCO); assay: Herbicidal effect in rice, field trial, Echinochloa colona; conditions: Table 2 field trial, post-emergence 2-4-leaf stage, scoring 21 days after application, 400 g of AS/ha
Method: as §1, §2, §3
(§5) After the application, for example 2, 4, 6 and 8 weeks after the application, the effect of the preparations was scored visually by comparison with untreated controls (cf. scoring in Example 1). In the field trial as well, the compositions according to the invention have synergistic herbicidal activity against a broad spectrum of economically important weed grasses and broad-leaved weeds. […] Moreover, the effects in essential phases of the scoring period were above the expected values according to Colby (cf. scoring in Example 1), also indicating synergism. In contrast, the crop plants were, as a consequence of the treatments with the herbicidal compositions, damaged only to a small degree, if at all.

[4] = test system: Sesbania exaltata (SEBEX); assay: Herbicidal effect in rice, field trial, Sesbania exaltata; conditions: Table 10 field trial, post-emergence 2-4-leaf stage, scoring 28 days after application, 32 g of AS/ha
Method: as §1, §2
Crop plants were grown outdoors on plots under natural outdoor conditions, and seeds or rhizome pieces of typical harmful plants were laid out or the natural weed growth was utilized. […]
After the application, for example 2, 4, 6 and 8 weeks after the application, the effect of the preparations was scored visually by comparison with untreated controls (cf. scoring in Example 1). […]

[5] = test system: Echinochloa crus-galli (ECHCG); assay: Herbicidal effect in rice, field trial, Echinochloa crus-galli
Method: as §1, §2, §3, §5

[6] = test system: Cyperus iria (CYPIR); assay: Herbicidal effect in rice, field trial, Cyperus iria; conditions: Table 14 field trial, post-emergence 3-leaf stage, scoring 42 days after application
Method: as §1, §2, §3, §4

[7] = Table 13 field trial, post-emergence 1-2-leaf stage, scoring 28 days after application, 37.5 g of AS/ha
[8] = Table 12 field trial, post-emergence 3-leaf stage, scoring 12 days after application, 1250 g of AS/ha
[9] = Table 12 field trial, post-emergence 3-leaf stage, scoring 12 days after application, 2500 g of AS/ha
[10] = Table 12 field trial, post-emergence 3-leaf stage, scoring 12 days after application, 5000 g of AS/ha

## O=C(O)COc1nc(Cl)c(Cl)cc1Cl [(B3.1), triclopyr]
[1]; Table 9 field trial, post-emergence 2-4-leaf stage, scoring 28 days after application, 50 g of AS/ha
  Damage (in %) to rice: 18%
[2]; Table 9 field trial, 50 g of AS/ha
  Herbicidal effect (in %) against AMARE: 66%

## CCS(=O)(=O)Oc1ccc2c(c1)C(C)(C)CO2 [(B3.2), benfuresate]
[3]
  Herbicidal effect (in %) against ECHCO: 0%
[1]; in vivo
  Damage (in %) to rice: 0%

## Cc1nn(-c2cc(CC(Cl)C(=O)O)c(Cl)cc2F)c(=O)n1C(F)F (stereo not drawn) [(B2.2), carfentrazone]
[4]
  Herbicidal effect (in %) against SEBEX: 93%
[1]; Table 10 field trial, post-emergence 2-4-leaf stage, scoring 28 days after application, 32 g of AS/ha
  Damage (in %) to rice: 13%

## COc1nc(NC(=O)NS(=O)(=O)c2ccccc2C(F)(F)F)nc(C(F)(F)F)n1 [(B2.4), tritosulfuron]
[5]; [7]
  Herbicidal effect (in %) against ECHCG: 0%
[1]; [7]
  Damage (in %) to rice: 0%

## CCN(CC)C(=O)SCc1ccc(Cl)cc1 [(B1.11), thiobencarb]
[6]; 1500 g of AS/ha
  Herbicidal effect (in %) against CYPIR: 78%
[2]; Table 7 field trial, 3000 g of AS/ha
  Herbicidal effect (in %) against AMARE: 83%

## CCC(=O)Nc1ccc(Cl)c(Cl)c1 [(B1.7), propanil]
[5]; [8]
  Herbicidal effect (in %) against ECHCG: 0%
[5]; [9]
  Herbicidal effect (in %) against ECHCG: 10%
[5]; [10]
  Herbicidal effect (in %) against ECHCG: 30%
[1]; [8]
  Damage (in %) to rice: 0%
[1]; [9]
  Damage (in %) to rice: 5%
[1]; [10]
  Damage (in %) to rice: 5%

## CC(C)Oc1cc(-n2nc(C(C)(C)C)oc2=O)c(Cl)cc1Cl [(B4.8), oxadiazon]
[6]; 250 g of AS/ha
  Herbicidal effect (in %) against CYPIR: 75%
[1]; in vivo
  Damage (in %) to rice: 0%
